Measured values published in patent US10533015B1, “Opioid receptor antagonist prodrugs” (Nirsum Laboratories, Inc., priority 2019, dated 2020).

Assays:
[1] = molecular target: T1, KOR (Homo sapiens, UniProt P41145); test: Opioid receptor binding assay, KOR ([3H]Diprenorphine); settings: MaxDose 10000 nM
T1 construct: expressed in transfected cells
Description: (§1) Receptor binding assays were performed to assess the ability of compounds to inhibit binding to radiolabeled ligand.
(§2) The stable cell lines were established and prepared cell membrane obtained using these cell lines.
(§3) 3) Assay Procedure 1) Transfer 1 μl of specified concentration compound to assay plate according to the plate map for nonspecific binding. Transfer 1 μl of DMSO to assay plate according to plate map for total binding. 2) Follow the plate map. Dispense 99 μl of membrane stocks into the plate. 3) Add 100 μl of radio ligand. 4) Seal the plates. Incubate at RT for 1 hour. 5) Soak the Unifilter-96 GF/C filter plates with 50 μl of 0.3% PEI per well for at least 0.5 hour at room temperature. 6) When binding assays are completed, filter the reaction mixture through GF/C plates using Perkin Elmer Filtermate Harvester, and then wash each plate for 4 times with cold wash buffer. 7) Dry the filter plates for 1 hour at 50 degrees. 8) After drying, seal the bottom of the filter plate wells using Perkin Elmer Unifilter-96 backing seal tape. Add 50 μl of Perkin Elmer Microscint 20 cocktail. Seal top of filter plates with Perkin Elmer TopSeal-A sealing film. 9) Count ^3H trapped on filter using Perkin Elmer MicroBeta2 Reader second day. 10) Analyze the data with GraphPad Prism 5. […]

[2] = molecular target: T2, MOR (Homo sapiens, UniProt P35372); test: Opioid receptor binding assay, MOR ([3H]DAMGO); settings: MaxDose 10000 nM
T2 construct: expressed in transfected cells
Description: as §1, §2, §3

[3] = Water; heating temp. 40 °C, obs. temp. 40 °C

T1 sequence (P41145 whole entry): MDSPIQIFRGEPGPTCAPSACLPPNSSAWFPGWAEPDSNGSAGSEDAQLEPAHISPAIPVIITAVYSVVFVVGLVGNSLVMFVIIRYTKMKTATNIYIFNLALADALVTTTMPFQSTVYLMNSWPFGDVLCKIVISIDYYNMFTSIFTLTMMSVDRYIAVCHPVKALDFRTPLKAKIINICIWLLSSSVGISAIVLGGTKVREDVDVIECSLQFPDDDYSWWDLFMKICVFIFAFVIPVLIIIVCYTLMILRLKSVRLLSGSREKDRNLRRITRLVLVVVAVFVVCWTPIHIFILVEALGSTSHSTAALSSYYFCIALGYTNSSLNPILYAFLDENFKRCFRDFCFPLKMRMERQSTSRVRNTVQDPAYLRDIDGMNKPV
T2 sequence (P35372 whole entry): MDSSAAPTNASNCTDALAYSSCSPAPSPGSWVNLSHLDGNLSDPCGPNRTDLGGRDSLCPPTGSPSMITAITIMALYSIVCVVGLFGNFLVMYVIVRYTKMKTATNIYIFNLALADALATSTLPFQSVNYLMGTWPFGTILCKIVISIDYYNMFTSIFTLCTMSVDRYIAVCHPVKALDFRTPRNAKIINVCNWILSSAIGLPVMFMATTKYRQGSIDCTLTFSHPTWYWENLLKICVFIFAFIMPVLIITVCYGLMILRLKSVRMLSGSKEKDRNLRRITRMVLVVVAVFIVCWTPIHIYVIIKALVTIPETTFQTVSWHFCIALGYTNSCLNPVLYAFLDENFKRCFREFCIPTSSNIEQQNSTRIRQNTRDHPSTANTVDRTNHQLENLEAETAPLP

C=C1CC[C@@]2(O)C3Cc4ccc(OCOC(=O)OCCCCCCCCCCCCCCCC)c5c4[C@@]2(CCN3CC2CC2)[C@H]1O5 [Compound 34, (((4aS,7aS,12bS)-3-(cyclopropylmethyl)-4a-hydroxy-7-methylene-2,3,4,4a,5,6,7,7a-octahydro-1H-4,12-methanobenzofuro[3,2-e]isoquinolin-9-yl)oxy)methyl hexadecyl carbonate]
% Inh@MaxDose [1]: 68.1%
% Inh@MaxDose [2]: 92.7%
Equilibrium solubility (mg/mL) Water [3]: <0.001 mg/mL
